{
  "source": "patent US8633154B2",
  "about": "“Cyclodepsipeptides with antineoplastic activity and methods of using to inhibit cancer and microbial growth” (Arizona Board of Regents, a body corporate of the State of …, priority 2007, dated 2014)",
  "assay_type_in_all_cases": "cell-based",
  "key": {"BXPC-3": {"test_system": "BXPC-3", "test": "Human cancer cell line growth inhibition, BXPC-3"}, "MCF-7": {"test_system": "MCF-7", "test": "Human cancer cell line growth inhibition, MCF-7"}, "SF268": {"test_system": "SF268", "test": "Human cancer cell line growth inhibition, SF268"}, "NCI-H460": {"test_system": "NCI-H460", "test": "Human cancer cell line growth inhibition, NCI-H460"}, "KM20L2": {"test_system": "KM20L2", "test": "Human cancer cell line growth inhibition, KM20L2"}, "DU-145": {"test_system": "DU-145", "test": "Human cancer cell line growth inhibition, DU-145"}, "[1]": {"test_system": "Cryptococcus neoformans ATCC 90112", "test": "Broth microdilution susceptibility assay, Cryptococcus neoformans", "source_text": "(§1) Cyclodepsipeptides 1 and 2 were screened against the bacteria Stenotrophomonas maltophilia ATCC 13637, Micrococcus luteus Presque Isle 456, Staphylococcus aureus ATCC 29213, Escherichia coli ATCC 25922, Enterobacter cloacae ATCC 13047, Enterococcus faecalis ATCC 29212, Streptococcus pneumoniae ATCC 6303, Neisseria gonorrhoeae ATCC 49226, and the fungi Candida albicans ATCC 90028 and Cryptococcus neoformans ATCC 90112, according to established broth microdilution susceptibility assays.^15,16 Owing to a paucity of material, compound 2 was tested against S. maltophilia, M. luteus, S. aureus, E. coli and C. albicans only. Compounds were reconstituted in a small volume of sterile DMSO and diluted in the appropriate media immediately prior to susceptibility experiments. The minimum inhibitory concentration was defined as the lowest concentration of compound that inhibited all visible growth of the test organism (optically clear). Assays were repeated on separate days."}, "[2]": {"test_system": "Micrococcus luteus Presque Isle 456", "test": "Broth microdilution susceptibility assay, Micrococcus luteus", "source_text": "as §1"}, "[3]": {"test_system": "Enterococcus faecalis ATCC 29212", "test": "Broth microdilution susceptibility assay, Enterococcus faecalis", "conditions": "ATCC29212, read-out: minimum inhibitory concentration [MIC]", "source_text": "as §1"}},
  "data": [
    {"smiles": "CCC(C)[C@@H]1OC(=O)[C@H](C)OC(=O)[C@@H](NC(=O)c2cccc(NC=O)c2O)[C@@H](C)OC(=O)[C@H](CC(C)C)OC(=O)C(C)(C)C(=O)[C@H](CC(C)C)NC1=O", "note": "(stereo partly shown) [Cyclodepsipeptide 1, respirantin]", "values": [
      {"measurement": "Inhibition of Human Cancer Cell Lines (GI50) BXPC-3", "setting": "BXPC-3", "value": 470, "unit": "ng/mL"},
      {"measurement": "Inhibition of Human Cancer Cell Lines (GI50) MCF-7", "setting": "MCF-7", "value": 0.6, "unit": "ng/mL"},
      {"measurement": "Inhibition of Human Cancer Cell Lines (GI50) SF268", "setting": "SF268", "value": 1.6, "unit": "ng/mL"},
      {"measurement": "Inhibition of Human Cancer Cell Lines (GI50) NCI-H460", "setting": "NCI-H460", "value": 0.6, "unit": "ng/mL"},
      {"measurement": "Inhibition of Human Cancer Cell Lines (GI50) KM20L2", "setting": "KM20L2", "value": 0.6, "unit": "ng/mL"},
      {"measurement": "Inhibition of Human Cancer Cell Lines (GI50) DU-145", "setting": "DU-145", "value": 0.18, "unit": "ng/mL"},
      {"measurement": "minimum inhibitory concentration [MIC]", "setting": "[1]; broth microdilution", "value": 2000, "unit": "ng/mL"}
    ]},
    {"smiles": "CC[C@H](C)[C@@H]1OC(=O)[C@H](C)OC(=O)[C@@H](NC(=O)c2cccc(NC=O)c2O)[C@@H](C)OC(=O)[C@H](C(C)C)OC(=O)C(C)(C)C(=O)[C@H](CC(C)C)NC1=O", "note": "[Cyclodepsipeptide 2]", "values": [
      {"measurement": "Inhibition of Human Cancer Cell Lines (GI50) BXPC-3", "setting": "BXPC-3", "value": 1200, "unit": "ng/mL"},
      {"measurement": "Inhibition of Human Cancer Cell Lines (GI50) MCF-7", "setting": "MCF-7", "value": 0.62, "unit": "ng/mL"},
      {"measurement": "Inhibition of Human Cancer Cell Lines (GI50) SF268", "setting": "SF268", "value": 16, "unit": "ng/mL"},
      {"measurement": "Inhibition of Human Cancer Cell Lines (GI50) NCI-H460", "setting": "NCI-H460", "value": 0.63, "unit": "ng/mL"},
      {"measurement": "Inhibition of Human Cancer Cell Lines (GI50) KM20L2", "setting": "KM20L2", "value": 0.58, "unit": "ng/mL"},
      {"measurement": "Inhibition of Human Cancer Cell Lines (GI50) DU-145", "setting": "DU-145", "value": "<0.1", "unit": "ng/mL"},
      {"measurement": "minimum inhibitory concentration [MIC]", "setting": "[2]", "value": 64000, "unit": "ng/mL"}
    ]},
    {"smiles": "CCC(C)[C@@H]1OC(=O)[C@H](C)OC(=O)[C@@H](NC(=O)c2cccc(N)c2O)[C@@H](C)OC(=O)[C@H](CC(C)C)OC(=O)C(C)(C)C(=O)[C@H](CC(C)C)NC1=O", "note": "(stereo partly shown) [Cyclodepsipeptide 3, Kitastatin 1]", "values": [
      {"measurement": "GI50", "setting": "BXPC-3; Homo sapiens, read-out: Inhibition of Human Cancer Cell Lines (GI50) BXPC-3", "value": 6.6, "unit": "ng/mL"},
      {"measurement": "GI50", "setting": "MCF-7; Homo sapiens, MCF7, read-out: Inhibition of Human Cancer Cell Lines (GI50) MCF-7", "value": 4, "unit": "ng/mL"},
      {"measurement": "GI50", "setting": "SF268; Homo sapiens, SF-268, read-out: Inhibition of Human Cancer Cell Lines (GI50) SF268", "value": 3.5, "unit": "ng/mL"},
      {"measurement": "GI50", "setting": "NCI-H460; Homo sapiens, read-out: Inhibition of Human Cancer Cell Lines (GI50) NCI-H460", "value": "< 1", "unit": "ng/mL"},
      {"measurement": "GI50", "setting": "KM20L2; Homo sapiens, KM-20L2, read-out: Inhibition of Human Cancer Cell Lines (GI50) KM20L2", "value": 2.4, "unit": "ng/mL"},
      {"measurement": "GI50", "setting": "DU-145; Homo sapiens, read-out: Inhibition of Human Cancer Cell Lines (GI50) DU-145", "value": 2.6, "unit": "ng/mL"},
      {"measurement": "MIC", "setting": "[1]; ATCC90112, read-out: minimum inhibitory concentration [MIC]", "value": 64000, "unit": "ng/mL"},
      {"measurement": "MIC", "setting": "[3]", "value": 64000, "unit": "ng/mL"}
    ]}
  ]
}
